According to paper PMC10796436, “Peptidyl nitroalkene inhibitors of main protease rationalized by computational and crystallographic investigations as antivirals against SARS-CoV-2” (Communications Chemistry, 2024):
“And” between values parts separate entries of the source, which are not always exact repeats. Equal entries are not always repeated.

Key:
SARS-CoV-2 M^pro [1] = target: T1, SARS-CoV-2 M^pro (Severe acute respiratory syndrome coronavirus 2, UniProt P0DTD1); assay: biochemical; conditions: M^pro from pMal-M^pro vector
SARS-CoV-2 M^pro [2] = target: T1, SARS-CoV-2 M^pro; assay: Mpro FRET inhibition, continuous fluorometric assay (Fluorolog-3), enzyme from pET21-M^pro vector; type: biochemical; conditions: read-out: Ki (μM)^b
SARS-CoV-2 = assay: microbe, parasite or virus in culture; type: cell-based; conditions: for virus titer Mean (%): mean of Exp.1-3
[3] = target: human matriptase (MT-SP1) (Homo sapiens, UniProt Q9Y5Y6); assay: Matriptase inhibition, fluorometric assay; type: biochemical; conditions: 20 μM
[4] = target: Zika Virus NS2B/NS3 (bZiPro) (Zika virus, UniProt A0A024B7W1); assay: Zika virus protease inhibition, fluorometric assay; type: biochemical; conditions: 20 μM
cathepsin L (CatL) = target: T2, cathepsin L (CatL) (Homo sapiens, UniProt P07711); assay: Cathepsin L inhibition, fluorometric assay; type: biochemical; conditions: read-out: Ki CatL
T2 construct: purchased Calbiochem (Merck Millipore)

M^pro = M^pro (Severe acute respiratory syndrome coronavirus 2, UniProt P0DTD1); assay: biochemical; type: binding

Chain of Zika Virus NS2B/NS3 (bZiPro) (A0A024B7W1 1425-1464): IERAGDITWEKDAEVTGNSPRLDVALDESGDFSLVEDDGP
Chain of Zika Virus NS2B/NS3 (bZiPro) (A0A024B7W1 1503-1680): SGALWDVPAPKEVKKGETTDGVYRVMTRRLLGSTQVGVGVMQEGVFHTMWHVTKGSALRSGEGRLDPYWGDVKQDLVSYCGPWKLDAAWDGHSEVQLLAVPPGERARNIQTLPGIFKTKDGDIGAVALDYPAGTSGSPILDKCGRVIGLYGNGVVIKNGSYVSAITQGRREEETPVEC
Chain of human matriptase (MT-SP1) (Q9Y5Y6 615-855 limits assumed, other chains not shown): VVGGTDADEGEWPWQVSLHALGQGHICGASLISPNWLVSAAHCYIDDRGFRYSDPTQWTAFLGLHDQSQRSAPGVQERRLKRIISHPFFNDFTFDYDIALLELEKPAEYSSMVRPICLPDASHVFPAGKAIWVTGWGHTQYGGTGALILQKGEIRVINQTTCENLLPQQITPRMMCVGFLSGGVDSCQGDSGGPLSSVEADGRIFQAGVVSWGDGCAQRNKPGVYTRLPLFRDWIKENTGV
T2 sequence (P07711 114-288 limits assumed): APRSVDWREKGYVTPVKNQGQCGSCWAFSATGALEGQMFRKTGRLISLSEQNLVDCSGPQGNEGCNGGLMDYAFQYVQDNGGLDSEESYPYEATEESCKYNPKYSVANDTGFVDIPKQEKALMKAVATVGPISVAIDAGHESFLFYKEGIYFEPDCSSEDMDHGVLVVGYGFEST
T2 sequence (P07711 292-333 limits assumed): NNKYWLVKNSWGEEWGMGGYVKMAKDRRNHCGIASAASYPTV

With COc1cccc2[nH]c(C(=O)N[C@@H](CC(C)C)C(=O)N[C@H](/C=C/[N+](=O)[O-])C[C@@H]3CCNC3=O)cc12 [FGA146] the Ki (SARS-CoV-2 M^pro [1]) was 2.19 ± 0.18 µM, the Ki (SARS-CoV-2 M^pro [2]) was 0.96 ± 0.06 µM and the EC50 (SARS-CoV-2; Huh-7-ACE2, 24h p.t., […]) was 900 nM. For the same compound, the “virus titer Mean (%)” value (SARS-CoV-2; conc 0.1) was 133.333%, the “virus titer Mean (%)” value (SARS-CoV-2; conc 0.5) was 86.6667% and the “virus titer (%) of conc 0” value (SARS-CoV-2; conc 0.5, single experiments) was 100% and 60%. For the same compound, the “virus titer (pfu/ml)” value (SARS-CoV-2; conc 0.5, single experiments) was 1000000 pfu/ml and 1200000 pfu/ml, the “virus titer Mean (%)” value (SARS-CoV-2; conc 1) was 22.5% and the “virus titer Mean (%)” value (SARS-CoV-2; conc 5) was 0.1667%. For the same compound, the “virus titer (%) of conc 0” value (SARS-CoV-2; conc 5, single experiments) was 0.4% and 0.04% and 0.06%, the “virus titer Mean (%)” value (SARS-CoV-2; conc 10) was 0.1023% and the “virus titer (%) of conc 0” value (SARS-CoV-2; conc 10, single experiments) was 0.12% and 0.18% and 0.007%. The “virus titer Mean (%)” value (SARS-CoV-2; conc 50) was 0.02533%, the “virus titer (%) of conc 0” value (SARS-CoV-2; conc 50, single experiments) was 0.06% and 0.014% and 0.002% and the “virus titer Mean (%)” value (SARS-CoV-2; conc 100) was 0.02033%. The “virus titer (%) of conc 0” value (SARS-CoV-2; conc 100, single experiments) was 0.04% and 0.018% and 0.003%, the MT-SP1 [3] was “n.i. (no inhibition (<10%) was observed at a concentration of 20 μM)” and the bZiPro [4] was “n.i. (no inhibition (<10%) was observed at a concentration of 20 μM)”. For the same compound, the Ki (cathepsin L (CatL)) was 868 ± 60 nM, the “Tm of M^pro” value (M^pro) was 45.0 ± 0.2 °C and 42.8 ± 0.1 °C and the “DTm (°C)” value (M^pro; 25 mM) was -4.2 °C. For the same compound, the Fraction unfolded (M^pro; 25 mM, 21.5 °C) was -0.01003, the Fraction unfolded (M^pro; 25 mM, 22 °C) was -0.02886 and the Fraction unfolded (M^pro; 25 mM, 22.5 °C) was -0.03599. It also gave a Fraction unfolded (M^pro; 25 mM, 23 °C) of -0.01149, a Fraction unfolded (M^pro; 25 mM, 23.5 °C) of 0.01389 and a Fraction unfolded (M^pro; 25 mM, 24 °C) of 0.08488. For the same compound, the Fraction unfolded (M^pro; 25 mM, 24.5 °C) was 0.03781, the Fraction unfolded (M^pro; 25 mM, 25 °C) was -0.07553 and the Fraction unfolded (M^pro; 25 mM, 25.5 °C) was 0.01064. It also gave a Fraction unfolded (M^pro; 25 mM, 26 °C) of 0.08908, a Fraction unfolded (M^pro; 25 mM, 26.5 °C) of 0.04267 and a Fraction unfolded (M^pro; 25 mM, 27 °C) of -0.01602. For the same compound, the Fraction unfolded (M^pro; 25 mM, 27.5 °C) was 0.0059, the Fraction unfolded (M^pro; 25 mM, 28 °C) was -0.0719 and the Fraction unfolded (M^pro; 25 mM, 28.5 °C) was 0.01153. The Fraction unfolded (M^pro; 25 mM, 29 °C) was -0.09309, the Fraction unfolded (M^pro; 25 mM, 29.5 °C) was -0.02786 and the Fraction unfolded (M^pro; 25 mM, 30 °C) was -0.01911. The Fraction unfolded (M^pro; 25 mM, 30.5 °C) was 0.07168, the Fraction unfolded (M^pro; 25 mM, 31 °C) was 0.0139 and the Fraction unfolded (M^pro; 25 mM, 32 °C) was -0.02402. The Fraction unfolded (M^pro; 25 mM, 32.5 °C) was 0.02054, the Fraction unfolded (M^pro; 25 mM, 66.5 °C) was 0.9674 and the Fraction unfolded (M^pro; 25 mM, 67 °C) was 1.009. The Fraction unfolded (M^pro; 25 mM, 67.5 °C) was 1.012, the Fraction unfolded (M^pro; 25 mM, 68 °C) was 1.038 and the Fraction unfolded (M^pro; 25 mM, 68.5 °C) was 1.026. For the same compound, the Fraction unfolded (M^pro; 25 mM, 69 °C) was 1.004, the Fraction unfolded (M^pro; 25 mM, 69.5 °C) was 1.031 and the Fraction unfolded (M^pro; 25 mM, 70 °C) was 1.005. The Fraction unfolded (M^pro; 25 mM, 70.5 °C) was 0.9826, the Fraction unfolded (M^pro; 25 mM, 71 °C) was 1.014 and the Fraction unfolded (M^pro; 25 mM, 71.5 °C) was 1.05. It also gave a Fraction unfolded (M^pro; 25 mM, 72 °C) of 1.03, a Fraction unfolded (M^pro; 25 mM, 72.5 °C) of 1.006 and a Fraction unfolded (M^pro; 25 mM, 73 °C) of 1.029. For the same compound, the Fraction unfolded (M^pro; 25 mM, 73.5 °C) was 0.9779, the Fraction unfolded (M^pro; 25 mM, 74 °C) was 1.013 and the Fraction unfolded (M^pro; 25 mM, 74.5 °C) was 1.064. The Fraction unfolded (M^pro; 25 mM, 75 °C) was 1.029, the Fraction unfolded (M^pro; 25 mM, 75.5 °C) was 1.031 and the Fraction unfolded (M^pro; 25 mM, 76 °C) was 1.031. The Fraction unfolded (M^pro; 25 mM, 76.5 °C) was 0.9806, the Fraction unfolded (M^pro; 25 mM, 77 °C) was 1.015 and the Fraction unfolded (M^pro; 25 mM, 77.5 °C) was 1.011. It also gave a Fraction unfolded (M^pro; 25 mM, 78 °C) of 1.0092, a Fraction unfolded (M^pro; 25 mM, 78.5 °C) of 1.012 and a Fraction unfolded (M^pro; 25 mM, 79 °C) of 1.059. For the same compound, the Fraction unfolded (M^pro; 25 mM, 79.5 °C) was 0.9461, the Fraction unfolded (M^pro; 25 mM, 80 °C) was 1.0063 and the “DTm (°C)” value (M^pro; 100 mM) was -6.4 °C. It also gave a Fraction unfolded (M^pro; 100 mM, 21.5 °C) of -0.0719, a Fraction unfolded (M^pro; 100 mM, 22 °C) of 0.01153 and a Fraction unfolded (M^pro; 100 mM, 22.5 °C) of -0.09309. For the same compound, the Fraction unfolded (M^pro; 100 mM, 23 °C) was -0.02786, the Fraction unfolded (M^pro; 100 mM, 23.5 °C) was -0.01911 and the Fraction unfolded (M^pro; 100 mM, 24 °C) was 0.07168. For the same compound, the Fraction unfolded (M^pro; 100 mM, 24.5 °C) was 0.0139, the Fraction unfolded (M^pro; 100 mM, 25 °C) was 0.01178 and the Fraction unfolded (M^pro; 100 mM, 25.5 °C) was -0.02402. The Fraction unfolded (M^pro; 100 mM, 26 °C) was 0.02054, the Fraction unfolded (M^pro; 100 mM, 26.5 °C) was 0.0786 and the Fraction unfolded (M^pro; 100 mM, 27 °C) was -0.05017. It also gave a Fraction unfolded (M^pro; 100 mM, 27.5 °C) of -0.00904, a Fraction unfolded (M^pro; 100 mM, 28 °C) of -0.01003 and a Fraction unfolded (M^pro; 100 mM, 28.5 °C) of -0.02886. It also gave a Fraction unfolded (M^pro; 100 mM, 29 °C) of -0.03599, a Fraction unfolded (M^pro; 100 mM, 29.5 °C) of -0.01149 and a Fraction unfolded (M^pro; 100 mM, 30 °C) of 0.01389. The Fraction unfolded (M^pro; 100 mM, 30.5 °C) was 0.08488, the Fraction unfolded (M^pro; 100 mM, 31 °C) was 0.03781 and the Fraction unfolded (M^pro; 100 mM, 32 °C) was 0.01064. The Fraction unfolded (M^pro; 100 mM, 32.5 °C) was 0.08908, the Fraction unfolded (M^pro; 100 mM, 66.5 °C) was 1.038 and the Fraction unfolded (M^pro; 100 mM, 67 °C) was 1.026. For the same compound, the Fraction unfolded (M^pro; 100 mM, 67.5 °C) was 1.004, the Fraction unfolded (M^pro; 100 mM, 68 °C) was 1.031 and the Fraction unfolded (M^pro; 100 mM, 68.5 °C) was 1.005. It also gave a Fraction unfolded (M^pro; 100 mM, 69 °C) of 0.9826, a Fraction unfolded (M^pro; 100 mM, 69.5 °C) of 1.014 and a Fraction unfolded (M^pro; 100 mM, 70 °C) of 1.04. For the same compound, the Fraction unfolded (M^pro; 100 mM, 70.5 °C) was 0.9664, the Fraction unfolded (M^pro; 100 mM, 71 °C) was 0.9851 and the Fraction unfolded (M^pro; 100 mM, 71.5 °C) was 0.9877. For the same compound, the Fraction unfolded (M^pro; 100 mM, 72 °C) was 0.9881, the Fraction unfolded (M^pro; 100 mM, 72.5 °C) was 1.095 and the Fraction unfolded (M^pro; 100 mM, 73 °C) was 0.9972. The Fraction unfolded (M^pro; 100 mM, 73.5 °C) was 1.057, the Fraction unfolded (M^pro; 100 mM, 74 °C) was 0.8905 and the Fraction unfolded (M^pro; 100 mM, 74.5 °C) was 1.0309. It also gave a Fraction unfolded (M^pro; 100 mM, 75 °C) of 0.9492, a Fraction unfolded (M^pro; 100 mM, 75.5 °C) of 0.9161 and a Fraction unfolded (M^pro; 100 mM, 76 °C) of 1.007. The Fraction unfolded (M^pro; 100 mM, 76.5 °C) was 1.02, the Fraction unfolded (M^pro; 100 mM, 77 °C) was 1.017 and the Fraction unfolded (M^pro; 100 mM, 77.5 °C) was 1.029. It also gave a Fraction unfolded (M^pro; 100 mM, 78 °C) of 1.021, a Fraction unfolded (M^pro; 100 mM, 78.5 °C) of 1.059 and a Fraction unfolded (M^pro; 100 mM, 79 °C) of 0.9805. It also gave a Fraction unfolded (M^pro; 100 mM, 79.5 °C) of 0.9855 and a Fraction unfolded (M^pro; 100 mM, 80 °C) of 1.001.
